Values quoted from earlier work in patent US20130090296A1, “INJECTABLE FORMULATION OF A MACROCYCLIC LACTONE AND LEVAMISOLE” (priority 2010, published 2013).

Details: previously found

c1ccc([C@H]2CN3CCSC3=N2)cc1 [levamisole]
pH required for stability: less than 4
